Results on 29 compounds are retold here after PubChem BioAssay AID1259408 (Genetic Toxicology Data Bank (GENE-TOX), 2018).

Activity calls are given as the source filed them. The rule behind the calls is not given here.

The series concerns GENE-TOX genotoxicity assays, various organisms and cells. The series can be described thus: GENE-TOX mutagenicity studies.
[1] abbreviates: Species/Cell Type: Saccharomyces cerevisiae, Assay Type: Mitotic recombination or gene conversion, Assay Code: YEH-, Evaluation Type: Evaluation A (Pre-1980).
Where [2] appears, read: Species/Cell Type: Drosophila melanogaster, Assay Type: Sex-linked recessive lethal gene mutation, Assay Code: SRL+, Evaluation Type: Evaluation A (Pre-1980).
Where [3] appears, read: Species/Cell Type: Saccharomyces cerevisiae, Assay Type: Mitotic recombination or gene conversion, Assay Code: YEC+, Evaluation Type: Evaluation A (Pre-1980).
[4] abbreviates: Species/Cell Type: Escherichia coli polA (W3119 vs P3478), Assay Type: Rec-assay, DNA effects (bacterial DNA repair), Assay Code: RE1+, Evaluation Type: Evaluation A (Pre-1980).
The mark [5] stands for this setting: Species/Cell Type: Saccharomyces cerevisiae, Assay Type: Mitotic recombination or gene conversion, Assay Code: YEH+, Evaluation Type: Evaluation A (Pre-1980).
The mark [6] stands for this setting: Species/Cell Type: Salmonella typhimurium (one or more of the five standard strains: TA98, TA100, TA1535, TA1537, and TA1538), Assay Type: Histidine reverse gene mutation, Ames assay, Assay Code: SALT, Evaluation Type: Evaluation A (Pre-1980).
[7] abbreviates: Species/Cell Type: Salmonella typhimurium (one or more of the five standard strains: TA98, TA100, TA1535, TA1537, and TA1538), Assay Type: Histidine reverse gene mutation, Ames assay, Assay Code: SAL+, Evaluation Type: Evaluation A (Pre-1980).
Where [8] appears, read: Species/Cell Type: Syrian hamster embryo (SHE) cells, Assay Type: Cell transformation, clonal assay, Assay Code: CTC+, Evaluation Type: Evaluation A (Pre-1980).
The mark [9] stands for this setting: Species/Cell Type: Nonhuman, Assay Type: Sister-chromatid exchange (SCE) in vivo, Assay Code: SC3+, Evaluation Type: Evaluation B (Post-1980).
Setting [10] is: Species/Cell Type: Nonhuman, Assay Type: Sister-chromatid exchange (SCE) in vitro, Assay Code: SC2+D, Dose Response: With dose response, Evaluation Type: Evaluation B (Post-1980).

With `Clc1ccc(Oc2c(Cl)cc(Cl)cc2Cl)cc1`, the mutagenic call is “inactive; negative” (Species/Cell Type: Saccharomyces cerevisiae, Assay Type: Forward gene mutation, Assay Code: YEF-, Evaluation Type: Evaluation A (Pre-1980)); “inactive; negative” (Species/Cell Type: Saccharomyces cerevisiae, Assay Type: Mitotic recombination or gene conversion, Assay Code: YEC-, Evaluation Type: Evaluation A (Pre-1980)); “inactive; negative” under setting [1].
As for `CN(C)N=Nc1c(Cl)cc(Cl)cc1Cl`, the mutagenic call is, setting by setting: (Species/Cell Type: Drosophila melanogaster, Assay Type: Aneuploidy, partial sex chromosome loss, chromosome aberrations, Assay Code: DAPT, Evaluation Type: Evaluation A (Pre-1980)) “no conclusion”; (Species/Cell Type: Drosophila melanogaster, Assay Type: Aneuploidy, whole sex chromosome loss, chromosome aberrations, Assay Code: DACT, Evaluation Type: Evaluation A (Pre-1980)) “no conclusion”; under setting [2], “active; positive”; (Species/Cell Type: Mammalian polychromatic erythrocytes, Assay Type: Micronucleus test, chromosome aberrations, Assay Code: MNT+, Evaluation Type: Evaluation A (Pre-1980)) “active; positive”; (Species/Cell Type: Neurospora crassa, Assay Type: Forward gene mutation, Assay Code: NEF+, Evaluation Type: Evaluation A (Pre-1980)) “active; positive”; under setting [3], “active; positive”.
As for `C=CCCl`, the mutagenic call is, setting by setting: under setting [4], “active; positive”; under setting [3], “active; positive”; under setting [5], “active; positive”.
Take `C=CCN=C=S`: the mutagenic call is, setting by setting: under setting [2], “active; positive”; (Species/Cell Type: Drosophila melanogaster, Assay Type: Sex-linked recessive lethal gene mutation, Assay Code: SRL-, Evaluation Type: Evaluation A (Pre-1980)) “inactive; negative”.
`Cc1cccc(O)c1`: the mutagenic call is “no conclusion” (Species/Cell Type: Allium cepa, Assay Type: Chromosome aberrations, Assay Code: ALCT, Evaluation Type: Evaluation A (Pre-1980)); “no conclusion” (Species/Cell Type: Human lymphocytes, Assay Type: Sister-chromatid exchange (SCE) in vitro, Assay Code: SCLT, Evaluation Type: Evaluation B (Post-1980)); “active; positive” (Species/Cell Type: Human, Assay Type: Sister-chromatid exchange (SCE) in vitro, Assay Code: SC1+, Evaluation Type: Evaluation B (Post-1980)); “no conclusion” (Species/Cell Type: Nonhuman, Assay Type: Sister-chromatid exchange (SCE) in vivo, Assay Code: SC3T, Evaluation Type: Evaluation B (Post-1980)).
On to `Oc1c(Br)cc(Br)c2cccnc12`, for which, under setting [6], the mutagenic call is given as “no conclusion”.
Regarding `C=CC(OC(C)=O)c1ccc(OC)c2ccccc12` (stereo not given), the mutagenic call under setting [7] was “active; positive”.
As to `CCCCN(COC(C)=O)N=O`, the mutagenic call was “active; positive” under setting [7] and “active; positive” under setting [8].
In the case of `CSc1nc2c(c(=O)n(C)c(=O)n2C)n1C`, the mutagenic call (Species/Cell Type: Allium cepa, Assay Type: Chromosome aberrations, Assay Code: ALC+D, Dose Response: With dose response, Evaluation Type: Evaluation A (Pre-1980)) was “active; positive”.
For `O=C1c2c(O)ccc(O)c2C(=O)c2c(NCCNCCO)ccc(NCCNCCO)c21`, the mutagenic call (Species/Cell Type: Nonhuman, Assay Type: Sister-chromatid exchange (SCE) in vitro, Assay Code: SC2+, Evaluation Type: Evaluation B (Post-1980)) is “active; positive”.
On to `CCN(Cc1ccccc1)c1ccc(C(=C2C=CC(=[N+](CC)Cc3ccccc3)C=C2)c2ccc(S(=O)(=O)O)cc2S(=O)(=O)[O-])cc1`, for which the mutagenic call (Species/Cell Type: Bacillus subtilis (H17 vs M45), Assay Type: Rec-assay, spot test, DNA effects (bacterial DNA repair), Assay Code: REWT, Evaluation Type: Evaluation A (Pre-1980)) was “no conclusion”.
For `CC1(C)C(C=C(Cl)Cl)C1C(=O)OCc1cccc(Oc2ccccc2)c1` (stereo not given), the mutagenic call is, setting by setting: (Species/Cell Type: Human diploid fibroblasts, Assay Type: Unscheduled DNA synthesis (UDS) in vitro, DNA effects, Assay Code: UDH-, Evaluation Type: Evaluation A (Pre-1980)) “inactive; negative”; under setting [1], “inactive; negative”.
With `CNC(=O)Oc1cccc2c1OC(C)(C)O2`, the mutagenic call (Species/Cell Type: Aspergillus nidulans, Assay Type: Aneuploidy, chromosome aberrations, Assay Code: ASN-, Evaluation Type: Evaluation A (Pre-1980)) was “inactive; negative”.
As for `O=C(CCNNC(=O)c1ccncc1)NCc1ccccc1`, the mutagenic call is “active; positive” under setting [9] and “active; positive” under setting [7].
On to `Nc1ccc2ccc3ccccc3c2n1`, for which the mutagenic call (Species/Cell Type: Salmonella typhimurium (one or more of the five standard strains: TA98, TA100, TA1535, TA1537, and TA1538), Assay Type: Histidine reverse gene mutation, Ames assay, Assay Code: SAL+*, Activation: With metabolic activation, Evaluation Type: Evaluation A (Pre-1980)) was “active; positive”.
In the case of `Cn1c(CCCC(=O)O)nc2cc(N(CCCl)CCCl)ccc21`, the mutagenic call under setting [10] is “active; positive”.
`Cc1c2c(c(CO)c3c1ccc1ccccc13)C=C[C@H](O)[C@H]2O`: the mutagenic call (Species/Cell Type: Chinese hamster lung (V79) cells, Assay Type: Forward gene mutation at the HPRT or ouabain locus, Assay Code: V79-*, Activation: With metabolic activation, Evaluation Type: Evaluation A (Pre-1980)) was “inactive; negative”.
Take `NNCCc1ccccc1`: the mutagenic call was “no conclusion” (Species/Cell Type: Human, Sex: Male, Assay Type: Sperm morphology, Assay Code: SPHT, Evaluation Type: Evaluation A (Pre-1980)) and “active; positive” under setting [9].
For `FC(F)OC(Cl)C(F)(F)F` (stereo not given), the mutagenic call (Species/Cell Type: Mouse, Sex: Male, Assay Type: Sperm morphology, Assay Code: SPI-, Evaluation Type: Evaluation A (Pre-1980)) was “inactive; negative”; the mutagenic call (Species/Cell Type: Nonhuman, Assay Type: Sister-chromatid exchange (SCE) in vitro, Assay Code: SC2T, Evaluation Type: Evaluation B (Post-1980)) is given as “no conclusion”; the mutagenic call under setting [6] was “no conclusion”.
Consider `COc1ccc([C@@H]2CC(=O)c3c(O)cc(O[C@@H]4O[C@H](CO)[C@@H](O)[C@H](O)[C@H]4O[C@@H]4O[C@@H](C)[C@H](O)[C@@H](O)[C@H]4O)cc3O2)cc1O`, for which, under “Species/Cell Type: Salmonella typhimurium, Assay Type: Forward and reverse gene mutation, body fluid assay, Assay Code: BFU-, Evaluation Type: Evaluation A (Pre-1980)”, the mutagenic call is “inactive; negative”.
With `C=CC(OC(C)=O)c1ccc2c(c1)OCO2` (stereo not given), the mutagenic call is “active; positive” under setting [4], “active; positive” under setting [5] and “active; positive” under setting [7].
As for `CC(=O)Oc1c2ccccc2c2ccc3cccc4ccc1c2c43`, the mutagenic call (Species/Cell Type: Syrian hamster embryo (SA7/SHE) cells, Assay Type: Cell transformation, viral enhanced, Assay Code: CT7+, Evaluation Type: Evaluation A (Pre-1980)) was “active; positive”.
On to `CCCCS(=O)(=O)OC`, for which, under “Species/Cell Type: Glycine max (soybean), Assay Type: Gene mutation, Assay Code: GLM+, Evaluation Type: Evaluation A (Pre-1980)”, the mutagenic call is “active; positive”.
As for `CN(C)P(=O)(N(C)C)N1CC1`, the mutagenic call by setting is: under setting [2], “active; positive”; (Species/Cell Type: Human lymphocytes, Assay Type: Sister-chromatid exchange (SCE) in vitro, Assay Code: SCL+D, Dose Response: With dose response, Evaluation Type: Evaluation B (Post-1980)) “active; positive”; (Species/Cell Type: Human, Assay Type: Sister-chromatid exchange (SCE) in vitro, Assay Code: SC1+D, Dose Response: With dose response, Evaluation Type: Evaluation B (Post-1980)) “active; positive”; (Species/Cell Type: Nonhuman, Assay Type: Chromosome aberrations in vitro, Assay Code: CY&+, Evaluation Type: Evaluation A (Pre-1980)) “active; positive”.
In the case of `O=NN(CCCl)C(=O)NCCCO`, the mutagenic call is “active; positive” under setting [2] and “active; positive” under setting [3].
For `[Cl][Cu]`, the mutagenic call (Species/Cell Type: Bacillus subtilis (H17 vs M45), Assay Type: Rec-assay, spot test, DNA effects (bacterial DNA repair), Assay Code: REW-, Evaluation Type: Evaluation A (Pre-1980)) is “inactive; negative”.
On to `CC[C@@]1(O)C[C@H](O[C@H]2C[C@H](NC)[C@H](O[C@H]3C[C@H](O)[C@H](O[C@H]4CCC(=O)[C@H](C)O4)[C@H](C)O3)[C@H](C)O2)c2c(cc3c(c2O)C(=O)c2c(O)cccc2C3=O)[C@H]1C(=O)OC`, for which the mutagenic call under setting [6] is recorded as “no conclusion”.
Regarding `c1ccc2c(c1)-c1cc3ccc4ccccc4c3cc1C1OC21` (stereo not given), the mutagenic call (Species/Cell Type: Chinese hamster lung (V79) cells, Assay Type: Forward gene mutation at the HPRT or ouabain locus, Assay Code: V79+, Evaluation Type: Evaluation A (Pre-1980)) was “active; positive”; the mutagenic call (Species/Cell Type: Human diploid fibroblasts, Assay Type: Unscheduled DNA synthesis (UDS) in vitro, DNA effects, Assay Code: UDHT, Evaluation Type: Evaluation A (Pre-1980)) was “no conclusion”; the mutagenic call (Species/Cell Type: Mouse prostate cells, Assay Type: Cell transformation, Assay Code: CTM+D, Dose Response: With dose response, Evaluation Type: Evaluation A (Pre-1980)) is “active; positive”; the mutagenic call under setting [10] is “active; positive”; the mutagenic call under setting [7] was “active; positive”; the mutagenic call under setting [8] is “active; positive”. Moreover, the call (Species/Cell Type: Nonhuman, Assay Type: In vivo carcinogenicity studies, Assay Code: CCG+L, Evaluation Type: Evaluation A (Pre-1980)) was “active; positive”.
As to `Nc1ncnc2c1ncn2[C@@H]1O[C@H](CO)[C@@H](O)[C@@H]1O`, for the setting “Species/Cell Type: Vicia faba, Assay Type: Chromosome aberrations, Assay Code: VIC+D, Dose Response: With dose response, Evaluation Type: Evaluation A (Pre-1980)”, the mutagenic call is “active; positive”.
